Measurements reported in patent US8053426B2, “Progesterone receptor antagonists” (Bayer Schering Pharma AG, priority 2006, dated 2011).

Key:
[1] = biological target: T1, human progesterone receptor B (PR-B) (Homo sapiens, UniProt P06401); experiment: Agonistic activity, MTV-LUC reporter in SK-N-MC cells stably transfected with PR-B; type: cell-based; conditions: 24 hours; for Efficacy, PR-B: relative LUC activity
T1 construct: expressed in transfected cells; host or cells: SK-N-MC human neuroblastoma cells, stably transfected with pRChPR-B-neo and pMMTV-LUC
T1 sequence (P06401 1-933): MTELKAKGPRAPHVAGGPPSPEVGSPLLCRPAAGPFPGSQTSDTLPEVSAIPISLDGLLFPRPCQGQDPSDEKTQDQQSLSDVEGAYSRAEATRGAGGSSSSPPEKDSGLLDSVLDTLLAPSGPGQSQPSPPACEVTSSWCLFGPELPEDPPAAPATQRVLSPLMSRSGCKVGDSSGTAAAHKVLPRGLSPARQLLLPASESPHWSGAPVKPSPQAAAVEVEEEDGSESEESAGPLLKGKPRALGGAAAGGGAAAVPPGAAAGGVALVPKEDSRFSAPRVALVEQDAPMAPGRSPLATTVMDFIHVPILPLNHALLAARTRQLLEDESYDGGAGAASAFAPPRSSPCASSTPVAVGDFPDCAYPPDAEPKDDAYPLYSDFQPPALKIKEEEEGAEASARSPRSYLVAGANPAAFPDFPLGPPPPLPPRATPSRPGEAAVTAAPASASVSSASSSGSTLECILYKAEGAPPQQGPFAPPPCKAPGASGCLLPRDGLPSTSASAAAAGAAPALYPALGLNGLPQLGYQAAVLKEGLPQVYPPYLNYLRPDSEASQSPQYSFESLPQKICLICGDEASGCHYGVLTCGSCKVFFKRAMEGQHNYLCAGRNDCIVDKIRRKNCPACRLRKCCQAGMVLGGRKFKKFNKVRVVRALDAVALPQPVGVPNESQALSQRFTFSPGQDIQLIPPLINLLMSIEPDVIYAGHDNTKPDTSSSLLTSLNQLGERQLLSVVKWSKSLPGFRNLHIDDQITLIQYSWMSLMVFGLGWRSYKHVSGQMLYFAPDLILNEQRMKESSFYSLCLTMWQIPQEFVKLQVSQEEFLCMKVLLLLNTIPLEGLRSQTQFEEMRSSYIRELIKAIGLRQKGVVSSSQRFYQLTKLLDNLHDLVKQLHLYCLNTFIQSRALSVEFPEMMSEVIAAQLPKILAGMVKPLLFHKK
Protocol: (§1) SK-N-MC cells (human neuroblastoma cells), stably transfected with plasmids, which express human progesterone receptor B (pRChPR-B-neo) or human progesterone receptor A (pRChPR-A-neo) and a reporter construct (pMMTV-LUC), were incubated for 24 hours, either in the absence (negative control) or in the presence of increasing amounts of 11β-[4-(1,2-dihydroxy-ethyl)phenyl]-20,20,21,21,21-pentafluoro-17-hydroxy-19-nor-17α-pregna-4,9-dien-3-one or 20,20,21,21,21-pentafluoro-17-hydroxy-11β-[4-(hydroxyacetyl)-phenyl]-19-nor-17α-pregna-4,9-dien-3-one (0.01 nmol/l, 0.1 nmol/l, 1 nmol/l, 10 nmol/l, 100 nmol/l and 1 μmol/l), in order to determine the agonistic efficacy. As a positive control of reporter gene induction, the cells were treated with the synthetic gestagen promegestone (0.01 nmol/l, 0.1 nmol/l, 1 nmol/l, 10 nmol/l, 100 nmol/l and 1 μmol/l). To determine the antagonistic activity, the cells were treated with 0.1 nmol/l of promegestone and additionally with increasing amounts of 11β-[4-(1,2-dihydroxyethyl)phenyl]-20,20,21,21,21-pentafluoro-17-hydroxy-19-nor-17α-pregna-4,9-dien-3-one or 20,20,21,21,21-pentafluoro-17-hydroxy-11β-[4-(hydroxyacetyl)phenyl]-19-nor-17α-pregna-4,9-dien-3-one (0.01 nmol/l, 0.1 nmol/l, 1 nmol/l, 10 nmol/l, 100 nmol/l and 1 μmol/l). […] The activity of the LUC reporter gene (LUC=luciferase) was determined in the cell lyzates and measured as RLU (relative light units).

[2] = biological target: T2, human progesterone receptor A (PR-A) (Homo sapiens, UniProt P06401); experiment: Agonistic activity, MTV-LUC reporter in SK-N-MC cells stably transfected with PR-A; type: cell-based; conditions: 24 hours; for Efficacy, PR-A: relative LUC activity
T2 construct: expressed in transfected cells; host or cells: SK-N-MC human neuroblastoma cells, stably transfected with pRChPR-A-neo and pMMTV-LUC
T2 sequence (P06401 1-769 isoform P06401-2): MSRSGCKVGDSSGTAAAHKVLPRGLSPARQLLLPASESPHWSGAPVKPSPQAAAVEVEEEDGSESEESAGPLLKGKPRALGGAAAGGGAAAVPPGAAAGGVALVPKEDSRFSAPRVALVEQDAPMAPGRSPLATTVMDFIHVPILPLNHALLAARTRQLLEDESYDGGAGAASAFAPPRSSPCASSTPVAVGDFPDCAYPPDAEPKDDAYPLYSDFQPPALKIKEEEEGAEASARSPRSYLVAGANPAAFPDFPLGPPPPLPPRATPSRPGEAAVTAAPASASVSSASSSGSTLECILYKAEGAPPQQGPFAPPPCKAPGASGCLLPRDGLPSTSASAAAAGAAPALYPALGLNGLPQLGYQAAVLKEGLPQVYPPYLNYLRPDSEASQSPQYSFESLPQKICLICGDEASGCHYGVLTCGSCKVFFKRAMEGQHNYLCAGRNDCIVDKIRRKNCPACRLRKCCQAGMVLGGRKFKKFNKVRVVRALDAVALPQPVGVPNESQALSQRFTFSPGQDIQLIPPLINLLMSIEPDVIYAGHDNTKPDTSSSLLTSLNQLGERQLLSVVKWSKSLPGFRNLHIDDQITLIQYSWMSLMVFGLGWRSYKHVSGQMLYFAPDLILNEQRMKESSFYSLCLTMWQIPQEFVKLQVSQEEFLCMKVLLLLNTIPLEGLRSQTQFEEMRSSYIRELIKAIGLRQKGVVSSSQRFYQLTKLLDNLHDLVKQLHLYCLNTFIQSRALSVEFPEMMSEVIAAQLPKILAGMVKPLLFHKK
Protocol: as §1

[3] = biological target: T1, human progesterone receptor B (PR-B); experiment: Antagonistic activity against promegestone, MTV-LUC reporter in SK-N-MC cells stably transfected with PR-B; type: cell-based; conditions: antagonistic activity vs 0.1 nmol/l promegestone, mean ± SD; for IC50: read-out: Potency IC50, PR-B
Protocol: as §1

[4] = Metabolic stability in human liver microsomes (HLM); type: in vitro ADME; conditions: 60 minutes, 37° C.
Protocol: Human liver microsomes (HLM) were used to assess the metabolic stability of substances of general formula I.
The incubations were carried out in duplicate with HLM and an NADPH-generating system using a shaker bath at 37° C. The incubation mixture (consisting of cofactor solution, potassium phosphate buffer and microsome preparation) was freshly prepared according to the Table below.
(§2) The incubation volume was 0.25 ml. The incubation mixture was preincubated for three minutes at 37° C. The reaction was started by the addition of the test substance (final concentration 50 μM). The reaction was ended after an incubation time of 60 minutes by the addition of 250 μl of methanol and the mixture was then centrifuged to pellet the protein. The samples were stored at −18° C. for subsequent RP-HPLC analysis.
as §2, with “concentration 10” for “concentration 50”

[5] = biological target: T2, human progesterone receptor A (PR-A); experiment: Antagonistic activity against promegestone, MTV-LUC reporter in SK-N-MC cells stably transfected with PR-A; type: cell-based; conditions: for selectivity in respect of one progesterone receptor isoform: PR-A versus PR-B; for selectivity in respect of one progesterone receptor isoform / Efficacy, PR-A / IC50: SK-N-MC cells; for Efficacy, PR-A / IC50: antagonistic activity vs 0.1 nmol/l promegestone, mean ± SD; for IC50: read-out: Potency IC50, PR-A; for times less potent than 11β-(4-acetylphenyl)-20,20,21,21,21-pentafluoro-17-hydroxy-19-nor-17α-pregna-4,9-dien-3-one at the progesterone receptors: antagonistic potency, figures match the ratio of the PR-A IC50 values
Protocol: as §1

[6] = tested on: pregnant rats; experiment: Abortion test on female rats; type: in vivo, rat; conditions: 1.5 mg/kg subcutaneously daily d5-d7 p.c., autopsy d9 p.c.
Protocol: The antigestagenic action of the progesterone receptor antagonists according to the invention was tested on pregnant rats (6 rats per group) on days 5 to 7 post coitum under conventional housing and feeding conditions.
After successful copulation, the pregnant animals (presence of sperm in the vaginal smear on day 1 of pregnancy=d1 p.c.) were randomized and divided up into the treatment group and the control group. Each animal was then injected subcutaneously with 1.5 mg/kg of the test substance (11β-[4-(1,2-Dihydroxyethyl)phenyl]-20,20,21,21,21-pentafluoro-17-hydroxy-19-nor-17α-pregna-4,9-dien-3-one according to Example 1 or 20,20,21,21,21-pentafluoro-17-hydroxy-11β-[4-(hydroxyacetyl)phenyl]-19-nor-17α-pregna-4,9-dien-3-one according to Example 3) or 1.0 ml/kg of vehicle (benzyl benzoate/castor oil: 1+4[v/v]) daily from day 5 to day 7 (d5-d7 p.c.).
The autopsy was performed on day 9 (d9 p.c.). As the parameter of antigestagenic action, the uterus was examined for the presence of implantation sites. The complete absence of implantation sites as well as the presence of pathological, hemorrhagic or otherwise abnormal implantation sites on day 9 (d9 p.c.) were evaluated as abortions.

[7] = tested on: 35-day-old rabbits; experiment: Determination of the McPhail index on the rabbit; type: in vivo; conditions: 3 mg/kg/d test substance + 0.2 mg/kg/d progesterone s.c. day 7 to 10, autopsy day 11, 1=no, 4=maximum glandular differentiation
Protocol: The antigestagenic efficacy of the progesterone receptor antagonists according to the invention was tested on 35-day-old rabbits under conventional housing and feeding conditions.
As a preparatory measure, the animals were treated subcutaneously with 5.0 μg/kg/d with 17β-estradiol from day 1 to day 4. To determine the antigestagenic efficacy, the animals were treated subcutaneously from day 7 to day 10 with 0.2 mg/kg/d of progesterone and 3 mg/kg/d of the test substance (11β-[4-(1,2-Dihydroxyethyl)phenyl]-20,20,21,21,21-pentafluoro-17-hydroxy-19-nor-17α-pregna-4,9-dien-3-one according to Example 1 or 20,20,21,21,21-pentafluoro-17-hydroxy-11β-[4-(hydroxyacetyl)phenyl]-19-nor-17α-pregna-4,9-dien-3-one according to Example 3) simultaneously. The vehicle used was a mixture of benzyl benzoate and castor oil in a ratio of 1+4 (v/v).
The autopsy was performed on day 11 after the start of treatment. The uteri were removed and fixed for histology. The McPhail index (degree of glandular differentiation) was determined by means of light microscopy (evaluation: 1=no glandular differentiation; 4=maximum glandular differentiation) as the parameter of antigestagenic efficacy (inhibition of the glandular differentiation caused by progesterone).

[8] = HLM 1.0 mg/ml, test substance 50 μM

Structure (SMILES) | EC50 ([1]; mean ± SD, read-out: Potency EC50, PR-B) [nM] | Efficacy, PR-B [1] | EC50 ([2]; mean ± SD, read-out: Potency EC50, PR-A) [nM] | Efficacy, PR-A [2] | Efficacy, PR-B [3] [%] | IC50 [3] [nM] | recovered in the supernatant (RP-HPLC) [4, 8] | selectivity in respect of one progesterone receptor isoform [5] | Efficacy, PR-A [5] [%] | IC50 [5] [nM] | times less potent than 11β-(4-acetylphenyl)-20,20,21,21,21-pentafluoro-17-hydroxy-19-nor-17α-pregna-4,9-dien-3-one at the progesterone receptors [5] | Abortion rate [6] [%] | McPhail index [median] [7] | recovered in the supernatant (RP-HPLC) ([4]; HLM 0.4 mg/ml, test substance 10 μM) [%]
CCC(=O)[C@@]1(C)CC[C@H]2[C@@H]3CCC4=CC(=O)CCC4=C3CC[C@@]21C [Promegestone, promegestone, reference compound] | 0.03 | 100% | 0.23 ± 0.03 | 100% | – | – | – | – | – | – | – | – | – | –
C[C@]12C[C@H](c3ccc(C(O)CO)cc3)C3=C4CCC(=O)C=C4CC[C@H]3[C@@H]1CC[C@@]2(O)C(F)(F)C(F)(F)F (mixture of isomers) [Example 1, 11β-[4-(1,2-dihydroxyethyl)phenyl]-20,20,21,21,21-pentafluoro-17-hydroxy-19-nor-17α-pregna-4,9-dien-3-one] | – | no effect | – | no effect | 100 ± 0 | 3.47 ± 0.46 | about 70% | Neither compound exhibits any selectivity | 100 ± 0 | 1.87 ± 0.23 | about 130 times | 100 | 1.0 | –
CC(=O)c1ccc([C@H]2C[C@@]3(C)[C@@H](CC[C@@]3(O)C(F)(F)C(F)(F)F)[C@@H]3CCC4=CC(=O)CCC4=C32)cc1 [11β-(4-acetylphenyl)-20,20,21,21,21-pentafluoro-17-hydroxy-19-nor-17α-pregna-4,9-dien-3-one, reference compound] | – | – | – | – | 100 ± 0 | 0.02 ± 0.01 | – | – | 100 ± 0 | 0.014 ± 0.01 | – | – | – | 60
C[C@]12C[C@H](c3ccc(C(=O)CO)cc3)C3=C4CCC(=O)C=C4CC[C@H]3[C@@H]1CC[C@@]2(O)C(F)(F)C(F)(F)F [Example 3, 20,20,21,21,21-pentafluoro-17-hydroxy-11β-[4-(hydroxyacetyl)phenyl]-19-nor-17α-pregna-4,9-dien-3-one] | – | no effect | – | no effect | 100 ± 0 | 0.28 ± 0.08 | about 80% | Neither compound exhibits any selectivity | 100 ± 0 | 0.18 ± 0.06 | about 13 times | 100 | 1.0 | –
